# Assay: Absorption of preservative-free tafluprost to low density polyethylene containers, remaining concentration by HPLC
# Type: physicochemical
# Details: LDPE unit dose container, 20 weeks at 5° C., 25° C. and 40° C.
# Procedure: The effect of nonionic surfactant on the absorption of preservative-free tafluprost to low density polyethylene containers was studied for 20 weeks at 5° C., 25° C. and 40° C. Three different polysorbate 80 (Tween 80) concentrations, namely 0.05%, 0.075% and 0.1% were used. The composition of the preservative-free aqueous tafluprost formulation except polysorbate 80 was 0.0015% tafluprost, 2.25% glycerol, 0.2% sodium dihydrogen phosphate dihydrate, 0.05% disodium edetate and sodium hydroxide and/or hydrochloric acid to adjust the pH to 5.0-6.7. 0.3 ml of the composition prepared above was filled in the body part of the unit dose container (LDPE) and sealed by heating with the upper part of the container (LDPE). The inner volume of the unit dose container was ca. 1 ml. The container was packaged into paper coated aluminium-polyethylene foil and stored in refrigerator or incubator. The remaining concentration of tafluprost was measured by HPLC.
structure (smiles),measurement,setting,value
CC(C)OC(=O)CCC/C=C\C[C@@H]1[C@@H](/C=C/C(F)(F)COc2ccccc2)[C@H](O)C[C@@H]1O [tafluprost],absorption of tafluprost to polyethylene,polysorbate 80 0.05 to 0.1%,inhibits the absorption of tafluprost
same,absorption of tafluprost to polyethylene,polysorbate 80 0.075 to 0.1%,good inhibition effect of absorption of tafluprost

# Source: patent publication US10864159B2, “Method and composition for treating ocular hypertension and glaucoma” (Santen Pharmaceutical Co., Ltd., priority 2008, dated 2020)
